Results: patent US8703754B2, “6-amino-2-{[(1S)-1-methylbutyl]oxy}-9-[5-(1-piperidinyl)-7,9-dihydro-8H-purin-8-one maleate” (GlaxoSmithKline LLC, priority 2010, dated 2014)

How the values were obtained:
[1] = Stability testing under ICH Q1A(R2) and Q1B conditions; format: physicochemical; conditions: ICH Q1A(R2) stability and Q1B photostability conditions
Interferon-α [2] = assay: Induction of Interferon-α using fresh human PBMCs; format: cell-based; conditions: PBMC, 24 hr, relative to 2 μM resiquimod control, read-out: mean pEC50 for induction of IFN-α (converted)
Description: (§1) Assay for the Induction of Interferon-α and TNF-α Using Fresh Human Peripheral Blood Mononuclear Cells (PBMCs)
(§2) 1 μL of test compound was transferred into 96-well tissue culture plates using a Biomek FX. Each compound was assayed in duplicate for each donor. Each plate contained a dilution series of the TLR7/8 agonist resiquimod as standard and Column 11 contained 1 μL of 200 μM resiquimod (giving a 2 μM final concentration, used to define the approximate maximal response to resiquimod).
(§3) Blood samples from two human donors were collected into sodium heparin (10 U/mL). 25 mL volumes of whole blood were overlaid onto 15 mL Histopaque in Leucosep tubes which were centrifuged at 800 g for 20 min and the band at the plasma/histopaque interface carefully removed. The collected cells were centrifuged at 2500 rpm for 10 min and the pellet resuspended in 10 mL of media (RPMI 1640 (Low endotoxin) supplemented with 10% v/v foetal calf serum (FCS, low endotoxin) 100 U/mL penicillin G, 100 μg/mL streptomycin, 10 mM L-glutamine and 1× non-essential amino acids). A 1:20 dilution of the cells was prepared using trypan blue and the cells counted using a haemocytometer.
(§4) Incubation and Assays for Interferon-α and TNF-α

TNF-α = assay: Induction of TNF-α using fresh human PBMCs; format: cell-based; conditions: PBMC, 24 hr, relative to 2 μM resiquimod control, read-out: mean pEC50 for induction of TNF-α (converted)
Description: as §1, §2, §3, §4

IL-13 = assay: Allergen-driven cytokine assay using fresh human PBMCs from atopic volunteers (IL-13); format: cell-based; conditions: 0.04 μM; PBMCs from three allergic donors, 10 ug/mL Timothy Grass antigen, up to 6 days
Description: (§5) Allergen-driven Cytokine Assay Using Fresh Human Peripheral Blood Mononuclear Cells (PBMCs) from Atopic Volunteers
(§6) An assay based on co-culture of atopic human donor derived peripheral blood mononuclear cells (PBMCs) with allergen and test compounds was developed. After 5-6 days culture, cell supernatants were assayed for a range of cytokines.
(§7) Each compound was assayed in triplicate at all concentrations.
(§8) Defibrinated human blood from volunteers known to be allergic to Timothy grass was centrifuged at 2500 rpm for 15 minutes. The upper layer of serum was collected and heat-inactivated at 56° C. for 30 minutes (HI-autologous serum). The lower layer of cells was resuspended in 50 mL PBS (+Ca +Mg), 25 mL diluted blood were overlaid onto 20 mL Lymphoprep in 50 ml tubes then centrifuged at 2500 rpm for 20 minutes at RT. The band at the serum/Lymphoprep interface was carefully removed. The collected cells were washed with PBS and re-suspended at 4×10^6 per mL in growth medium with HI-autologous serum. PBMCs were seeded at 0.4×10^6 cells per well in flat-bottomed 96 well plates in the presence of 10 ug/mL Timothy Grass antigen (Alk Abello) and test compounds at appropriate concentrations in a total volume of 200 μL.
(§9) Incubation and Cytokine Assays
(§10) Plates were incubated at 37° C. in 5% CO2 for up to 6 days. The cell medium from each well was harvested and stored at −20° C. prior to analysis.

Interferon-α [3] = assay: Induction of Interferon-α using cryopreserved human PBMCs; format: cell-based; conditions: PBMC, 24 hours, normalised to 1 μM resiquimod and DMSO, read-out: mean pEC50 for induction of IFN-α (converted)
Description: Assay for the Induction of Interferon-α Using Cryopreserved Human Peripheral Blood Mononuclear Cells (PBMCs)
Serial 2-fold dilutions with DMSO were prepared and 0.25 μl dispensed into 384-well clear Greiner polypropylene plates.
Blood samples of up to 200 mL were obtained from healthy human donors. Whole blood in 25 mL volumes was overlaid onto 15 mL Ficoll gradients in Leucosep tubes, and centrifuged at 1000 g for 20 min. Cells in the band at the plasma/histopaque interface were carefully removed and washed twice with PBS (centrifuged at 400 g for 5 min to harvest). The final pellet was resuspended in freezing medium (90% Heat-inactivated serum, 10% DMSO) to a cell concentration of 4×10^7 cells/mL. The resuspended cells were then cryopreserved (frozen) using a rate controlled freezer, and stored at −140° C. for up to 4 months.
Incubation and Assay for Interferon-α
Immediately prior to assay, vials of cryopreserved (frozen) PBMCs were thawed rapidly in a water bath at 37° C. A 1:10 dilution of the cells in trypan blue was prepared and counted. […]
A multi-isoform immunoassay was used to quantify IFN-α in PBMC supernatants. […] Following three washes with PBS, 30 μl of ×2 T buffer (MSD) was added to each well and the plate was read on an MSD Sector 6000 plate reader. […]

Interferon-α [4] = assay: Induction of Interferon-α following intranasal dosing in the mouse; format: in vivo; conditions: female BALB/c mice, 2 hours after dosing, ELISA
Description: Assay for the Induction of Interferon-α Following Intranasal Dosing in the Mouse
The compound of Reference Example 1 was dissolved in 0.2% Tween 80 in saline and administered intranasally (5 μL in total between the nostrils) to female BALB/c mice (n=6) under general anaesthesia. Animals were euthanased 2 hours after dosing and a terminal blood sample was taken and serum levels of Interferon-a measured using an ELISA assay.

IL-5 = assay: Allergen-driven cytokine assay using fresh human PBMCs from atopic volunteers (IL-5); format: cell-based; conditions: 0.04 μM; PBMCs from three allergic donors, 10 ug/mL Timothy Grass antigen, up to 6 days
Description: as §5, §6, §7, §8, §9, §10

degradation under stability testing [1] | EC50 (Interferon-α [2]) | EC50 (TNF-α) | SMILES | reduction of production of the Th2 cytokine IL-13 compared to the allergen control (IL-13) | EC50 (Interferon-α [3]) | mean serum levels of Interferon-α (Interferon-α [4]) | reduction of production of the Th2 cytokine IL-5 compared to the allergen control (IL-5)
no significant degradation |  |  | CCC[C@H](C)Oc1nc(N)c2[nH]c(=O)n(CCCCCN3CCCCC3)c2n1.O=C(O)/C=C\C(=O)O [Example 2, 6-Amino-2-{[(1S)-1-methylbutyl]oxy}-9-[5-(1-piperidinyl)pentyl]-7,9-dihydro-8H-purin-8-one, Maleate Salt] |  |  |  | 
 | ≤ 1 nM | ≥ 316 nM | CCC[C@H](C)Oc1nc(N)c2[nH]c(=O)n(CCCCCN3CCCCC3)c2n1 [Reference Example 1, 6-Amino-2-{[(1S)-1-methylbutyl]oxy}-9-[5-(1-piperidinyl)pentyl]-7,9-dihydro-8H-purin-8-one] | ≥ 50% | < 5.01 nM | 21029 pg/mL | ≥ 50%
